Test results published in the supplement of paper PMC10307832.

Tests used:
Test in all cases: relative viability (nuclei count vs DMSO), 5 days (fraction); higher = more cells survive
[1] = compound: CC1=C(CC(=O)O)c2cc(F)ccc2/C1=C\c1ccc([S+](C)[O-])cc1 [Sulindac] + CC(C)C[C@H](NC(=O)[C@H](Cc1ccccc1)NC(=O)c1cnccn1)B(O)O [Bortezomib] (partner 0.002 µM)
Outline: (§1)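 Lung cancer cell lines were seeded in 1536-well plates and dosed by pin tool the next day, with either a single drug or a fixed anchor-drug dose combined with five library-drug doses (not always all listed) spaced in √10 steps. Five days later, one step fixed the cells and stained their nuclei (final 0.05% Triton X-100, 1% formaldehyde, 1 ug/ml Hoechst), and nuclei were counted on 4× images. Relative viability is the nuclei count in treated wells divided by the count in vehicle wells, and each value is the median of duplicate plates.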

[2] = compound: CC1=C(CC(=O)O)c2cc(F)ccc2/C1=C\c1ccc([S+](C)[O-])cc1 [Sulindac] + C[C@]1(O)C[C@@H](c2nc(-c3ccc4ccc(-c5ccccc5)nc4c3)c3c(N)nccn32)C1 [Linsitinib] (partner 1 µM)
Outline: as §1

[3] = compound: CC1=C(CC(=O)O)c2cc(F)ccc2/C1=C\c1ccc([S+](C)[O-])cc1 [Sulindac] + N=C(N)NC(=N)NCCc1ccccc1 [Phenformin] (partner 250 µM)
Outline: as §1

[4] = compound: O=c1[nH]cc(F)c(=O)[nH]1 [5-Fluorouracil] + Cc1nc(Nc2ncc(C(=O)Nc3c(C)cccc3Cl)s2)cc(N2CCN(CCO)CC2)n1 [Dasatinib] (partner 0.075 µM)
Outline: as §1

Cell Line | relative viability ([1]; first compound 0.08 µM) | relative viability ([1]; first compound 0.253 µM) | relative viability ([1]; first compound 0.8 µM) | relative viability ([1]; first compound 2.53 µM) | relative viability ([1]; first compound 8 µM) | relative viability ([2]; first compound 0.08 µM) | relative viability ([2]; first compound 0.253 µM) | relative viability ([2]; first compound 0.8 µM) | relative viability ([2]; first compound 2.53 µM) | relative viability ([2]; first compound 8 µM) | relative viability ([3]; first compound 0.08 µM) | relative viability ([3]; first compound 0.253 µM) | relative viability ([3]; first compound 0.8 µM) | relative viability ([3]; first compound 2.53 µM) | relative viability ([3]; first compound 8 µM) | relative viability ([4]; first compound 0.02 µM) | relative viability ([4]; first compound 0.2 µM) | relative viability ([4]; first compound 0.6325 µM) | relative viability ([4]; first compound 2 µM)
NCI-H1755 | 1.25 | 1.03 | 0.85 | 1.01 | 1.04 | 1.16 | 1.07 | 0.906 | 1 | 1.05 | 0.645 | 0.653 | 0.525 | 0.643 | 0.648 | 0.416 | 0.442 | 0.247 | 0.184
A-427 | 0.899 | 0.976 | 1.08 | 0.965 | 1.17 | 1.1 | 1.14 | 1.11 | 1.14 | 1.11 | 0.332 | 0.324 | 0.248 | 0.334 | 0.354 | 0.562 | 0.764 | 0.618 | 0.353
PC-14 | 1.05 | 0.902 | – | 0.929 | 0.783 | 1.01 | 1.02 | 0.708 | 1.02 | 1.07 | 0.571 | 0.403 | 0.403 | 0.537 | 0.853 | 0.247 | 0.268 | 0.274 | 0.188
EKVX | 1 | 0.999 | 0.859 | 1.04 | 1.05 | 0.872 | 1 | 0.721 | 0.92 | 1.04 | 0.244 | 0.214 | 0.211 | 0.218 | 0.226 | – | – | – | –
NCI-H2342 | – | – | – | – | – | – | – | – | – | – | 0.647 | 0.594 | 0.475 | 0.546 | 0.625 | 0.305 | 0.343 | 0.301 | 0.293
